What was measured:
[1] = system: hNPCs infected with ZIKV PRVABC59; assay: hNPC proliferation after ZIKV infection (EdU); type: cell-based, human; conditions: PHA-690509 1 μM, Seliciclib 5 μM
Description: (§1) FIGS. 17A-17C. Analysis of potential toxicity of CDKis on human astrocyte viability and hNPC proliferation. Human iPSC-derived astrocytes (BJ line) were treated with each indicated compound (cpd) for 25 hours prior to cell viability analysis as measured in relative luciferase units for ATP production. Values represent mean+s.d. (n=3 cultures; ***P<0.001; **P<0.01; One-way ANOVA for comparison with the DMSO treatment). RLU: relative luminescence units. hNPCs were treated with saline, PHA-690509 (PHA, 1 μM) or Seliciclib (5 μM), 1 hour prior to ZIKV PRVABC59 infection (MOI=0.08). At 72 hours post infection, EdU (10 μM) was added to hNPCs and cells were cultured for additional 4 hours prior to fixation and staining for EdU and DAPI. Values represent mean+s.e.m. (n=3 cultures; ***P<0.001; One-way ANOVA for comparison with the mock treatment). Day 20 forebrain-specific brain organoids were treated with PHA-690509 (1 μM) or Seliciclib (5 μM) for 3 days and hNPC proliferation was evaluated by phospho-Histone 3 (PH3) expression within the ventricular zone. Values represent mean+s.e.m. (n=8 organoids; P>0.05; One-way ANOVA for comparison with the mock treatment).

[2] = system: forebrain-specific brain organoids; assay: hNPC proliferation in forebrain organoids (phospho-Histone 3), compound alone; type: cell-based, human; conditions: 3 days
Description: as §1

CC[C@H](CO)Nc1nc(NCc2ccccc2)c2ncn(C(C)C)c2n1 [Seleciclib, Seliciclib]
rescue of ZIKV-induced reduction of hNPC proliferation [1]: partially rescued ZIKV-induced reduction of hNPC proliferation | effect of the treatment itself on hNPC proliferation [2]: minimal effect on hNPC proliferation in brain organoids
